Patent US20240174690A1, “ANNULATED 2-AMINO-3-CYANO THIOPHENES AND DERIVATIVES FOR THE TREATMENT OF CANCER” (BOEHRINGER INGELHEIM INTERNATIONAL GMBH, priority 2021, published 2024)

Assays:
KRAS (G12D)::SOS1 = KRAS (G12D)::SOS1 (Homo sapiens (Human), UniProt P01116, G12D); experiment: KRAS::SOS1 AlphaScreen binding assay, KRAS G12D
Procedure, shortened: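 AlphaScreen measurement of compound disruption of biotinylated, GDP-loaded KRAS 1-169 (10 nM; G12C 7.5 nM) binding to GST-SOS1 564-1049 (5 nM with G12D/G12C, 10 nM otherwise), with 10 μM GDP in PBS/0.1% BSA/0.05% Tween 20. Timing was 30 min compound preincubation, then 60 min with beads at room temperature; top concentration 100 μM, 4-parameter IC50.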

[1] = Metabolic (microsomal) stability assay, human liver microsomes (HLM); format: in vitro ADME; conditions: predicted clearance as percent of liver blood flow, 1 μM
Procedure, shortened: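 LC-MS/MS tracked parent disappearance at 0, 5, 15, 30 and 60 min in NADPH-initiated incubations with 1 mg/mL human microsomal protein and 1 μM compound at 37°C, pH 7.5. First-order fits gave intrinsic clearance, which was scaled up and reported as % QH. NADPH-free controls were also run.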

Sequence of KRAS (G12D)::SOS1 (P01116 other isoform, or with tags, fused parts or gaps G12D): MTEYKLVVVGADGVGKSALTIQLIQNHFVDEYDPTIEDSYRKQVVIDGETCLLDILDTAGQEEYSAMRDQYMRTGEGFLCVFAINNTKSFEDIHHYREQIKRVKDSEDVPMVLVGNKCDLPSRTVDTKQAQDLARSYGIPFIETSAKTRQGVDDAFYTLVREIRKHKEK

C[C@H](Oc1cc(N2CC[C@H](N3CCCC3)C2)nc(-c2noc3c2CCC[C@@]32CCCc3sc(N)c(C#N)c32)n1)[C@@H]1CCCN1C [II-14]
IC50 (KRAS (G12D)::SOS1): 1 nM | HLM QH [1]: <24%

C[C@H](Oc1cc(N2CC[C@H](N(C)C)C2)nc(-c2noc3c2CCC[C@@]32CCCc3sc(N)c(C#N)c32)n1)[C@@H]1C[C@@H](F)CN1C [II-15]
IC50 (KRAS (G12D)::SOS1): 1 nM | HLM QH [1]: <24%

C[C@H]1CN(C)CCCN1c1cc(N2CC[C@H](N(C)C)C2)nc(-c2noc3c2CCC[C@@]32CCCc3sc(N)c(C#N)c32)n1 [II-16]
IC50 (KRAS (G12D)::SOS1): 1 nM | HLM QH [1]: <24%

C[C@@H]1CN(c2cc(O[C@@H](C)[C@@H]3C[C@@H](F)CN3C)nc(-c3noc4c3CCC[C@@]43CCCc4sc(N)c(C#N)c43)n2)CC2(CC2)N1 [II-17]
IC50 (KRAS (G12D)::SOS1): 2 nM | HLM QH [1]: 63%

C[C@H](Oc1cc(N2C[C@H](C)NC3(CC3)C2)nc(-c2noc3c2CCC[C@@]32CCCc3sc(N)c(C#N)c32)n1)[C@@H]1C[C@@H](F)CN1C [II-18]
IC50 (KRAS (G12D)::SOS1): 2 nM | HLM QH [1]: 58%

C[C@H](Oc1cc(-n2ccc(C(=O)N3CCCC3)n2)nc(-c2noc3c2CCC[C@@]32CCCc3sc(N)c(C#N)c32)n1)[C@@H]1CCCN1C [II-19]
IC50 (KRAS (G12D)::SOS1): 1 nM | HLM QH [1]: 30%

CNC(=O)c1ccn(-c2cc(O[C@@H](C)[C@@H]3CCCN3C)nc(-c3noc4c3CCC[C@@]43CCCc4sc(N)c(C#N)c43)n2)n1 [II-20]
IC50 (KRAS (G12D)::SOS1): 2 nM | HLM QH [1]: <24%

C[C@H](Oc1cc(-n2ccc(C(N)=O)n2)nc(-c2noc3c2CCC[C@@]32CCCc3sc(N)c(C#N)c32)n1)[C@@H]1CCCN1C [II-21]
IC50 (KRAS (G12D)::SOS1): 2 nM | HLM QH [1]: <24%

CCOC(=O)c1ccn(-c2cc(O[C@@H](C)[C@@H]3CCCN3C)nc(-c3noc4c3CCC[C@@]43CCCc4sc(N)c(C#N)c43)n2)n1 [II-23]
IC50 (KRAS (G12D)::SOS1): 2 nM | HLM QH [1]: <24%

C[C@H](Oc1cc(-n2ccc(C(=O)O)n2)nc(-c2noc3c2CCC[C@@]32CCCc3sc(N)c(C#N)c32)n1)[C@@H]1CCCN1C [II-24]
IC50 (KRAS (G12D)::SOS1): 3 nM | HLM QH [1]: <24%

C[C@H](Oc1cc(-n2ccc(C(=O)NC3COC3)n2)nc(-c2noc3c2CCC[C@@]32CCCc3sc(N)c(C#N)c32)n1)[C@@H]1CCCN1C [II-25]
IC50 (KRAS (G12D)::SOS1): 2 nM | HLM QH [1]: <24%

C[C@H](Oc1cc(-n2ccc(C(=O)NC3(C)COC3)n2)nc(-c2noc3c2CCC[C@@]32CCCc3sc(N)c(C#N)c32)n1)[C@@H]1CCCN1C [II-26]
IC50 (KRAS (G12D)::SOS1): 2 nM | HLM QH [1]: <24%

C[C@H](Oc1cc(-c2ccn(C)n2)nc(-c2noc3c2CCC[C@@]32CCCc3sc(N)c(C#N)c32)n1)[C@@H]1C[C@@H](F)CN1C [II-27]
IC50 (KRAS (G12D)::SOS1): 8 nM | HLM QH [1]: 44%

C[C@H](Oc1cc(-c2cnn(C)n2)nc(-c2noc3c2CCC[C@@]32CCCc3sc(N)c(C#N)c32)n1)[C@@H]1C[C@@H](F)CN1C [II-28]
IC50 (KRAS (G12D)::SOS1): 22 nM | HLM QH [1]: 51%

C[C@H]1CN(C)CCCN1c1cc(N2CCN(C)CC2)nc(-c2noc3c2CCC[C@@]32CCCc3sc(N)c(C#N)c32)n1 [II-30]
IC50 (KRAS (G12D)::SOS1): 4 nM | HLM QH [1]: <24%

C[C@H](Oc1cc(N2CCNC3(COC3)C2)nc(-c2noc3c2CCC[C@@]32CCCc3sc(N)c(C#N)c32)n1)[C@@H]1CCCN1C [II-31]
IC50 (KRAS (G12D)::SOS1): 1 nM | HLM QH [1]: 42%

C[C@H](Oc1cc(N2CCNC(C)(C)C2)nc(-c2noc3c2CCC[C@@]32CCCc3sc(N)c(C#N)c32)n1)[C@@H]1CCCN1C [II-32]
IC50 (KRAS (G12D)::SOS1): 1 nM | HLM QH [1]: <24%

C[C@H](Oc1cc(N2C[C@H]3CN(C)C[C@H]3C2)nc(-c2noc3c2CCC[C@@]32CCCc3sc(N)c(C#N)c32)n1)[C@@H]1CCCN1C [II-33]
IC50 (KRAS (G12D)::SOS1): 2 nM | HLM QH [1]: <24%

C[C@H](Oc1cc(N2CC3CCC(C2)N3)nc(-c2noc3c2CCC[C@@]32CCCc3sc(N)c(C#N)c32)n1)[C@@H]1CCCN1C [II-34]
IC50 (KRAS (G12D)::SOS1): 1 nM | HLM QH [1]: <24%

CN[C@H]1CCN(c2cc(O[C@@H](C)[C@@H]3CCCN3C)nc(-c3noc4c3CCC[C@@]43CCCc4sc(N)c(C#N)c43)n2)C1 [II-35]
IC50 (KRAS (G12D)::SOS1): 2 nM | HLM QH [1]: <24%

C[C@@H]1CN(c2cc(O[C@@H](C)[C@@H]3CCCN3C)nc(-c3noc4c3CCC[C@@]43CCCc4sc(N)c(C#N)c43)n2)C[C@H](C)N1 [II-36]
IC50 (KRAS (G12D)::SOS1): 1 nM | HLM QH [1]: <24%

C[C@H](Oc1cc([C@@H]2CCN(C)C2)nc(-c2noc3c2CCC[C@@]32CCCc3sc(N)c(C#N)c32)n1)[C@@H]1CCCN1C [II-37]
IC50 (KRAS (G12D)::SOS1): 1 nM | HLM QH [1]: <24%

C[C@H](Oc1cc([C@H]2CCN(C)C2)nc(-c2noc3c2CCC[C@@]32CCCc3sc(N)c(C#N)c32)n1)[C@@H]1CCCN1C [II-38]
IC50 (KRAS (G12D)::SOS1): 1 nM | HLM QH [1]: <24%

C[C@H](Oc1cc(N2CCN(C)CC2)nc(-c2noc3c2CCC[C@@]32CCCc3sc(N)c(C#N)c32)n1)[C@@H]1CCCN1[C@@H]1CCOC1 [II-39]
IC50 (KRAS (G12D)::SOS1): 1 nM | HLM QH [1]: 52%

C[C@H](Oc1cc(N2CCNC3(CCC3)C2)nc(-c2noc3c2CCC[C@@]32CCCc3sc(N)c(C#N)c32)n1)[C@@H]1CCCN1C [II-40]
IC50 (KRAS (G12D)::SOS1): 1 nM | HLM QH [1]: <24%

C[C@H](Oc1cc(N2CCNC3(CCCC3)C2)nc(-c2noc3c2CCC[C@@]32CCCc3sc(N)c(C#N)c32)n1)[C@@H]1CCCN1C [II-41]
IC50 (KRAS (G12D)::SOS1): 1 nM | HLM QH [1]: <24%

C[C@H](Oc1cc(-c2ccn([C@H]3CCCOC3)n2)nc(-c2noc3c2CCC[C@@]32CCCc3sc(N)c(C#N)c32)n1)[C@@H]1CCCN1C [II-42]
IC50 (KRAS (G12D)::SOS1): 2 nM | HLM QH [1]: <24%

C[C@H](Oc1cc(-c2ccn(C[C@@H]3CCCO3)n2)nc(-c2noc3c2CCC[C@@]32CCCc3sc(N)c(C#N)c32)n1)[C@@H]1CCCN1C [II-43]
IC50 (KRAS (G12D)::SOS1): 2 nM | HLM QH [1]: <24%

C[C@H](Oc1cc(C2CCCO2)nc(-c2noc3c2CCC[C@@]32CCCc3sc(N)c(C#N)c32)n1)[C@@H]1CCCN1C (stereo partly shown) [II-44]
IC50 (KRAS (G12D)::SOS1): 2 nM | HLM QH [1]: 31%

C[C@H](Oc1nc(-c2noc3c2CCC[C@@]32CCCc3sc(N)c(C#N)c32)cc(N2C[C@H](C)N[C@@H](C)C2)n1)[C@@H]1CCCN1C [II-46]
IC50 (KRAS (G12D)::SOS1): 1 nM | HLM QH [1]: 27%

C[C@H](Oc1cc(N2CC[C@@H](N(C)C)C2)nc(-c2noc3c2CCC[C@@]32CCCc3sc(N)c(C#N)c32)n1)[C@@H]1CCCN1C [II-47]
IC50 (KRAS (G12D)::SOS1): 1 nM | HLM QH [1]: <24%

C[C@H](Oc1cc(N2CCC(N(C)C)CC2)nc(-c2noc3c2CCC[C@@]32CCCc3sc(N)c(C#N)c32)n1)[C@@H]1CCCN1C [II-48]
IC50 (KRAS (G12D)::SOS1): 1 nM | HLM QH [1]: <24%
